One assay addresses Chymotrypsinogen A (Bos taurus, UniProt P00766). The experiment in a line: (§1) Inhibitory activity against alpha-chymotrypsin.
For assay [1], the target named is Chymotrypsinogen A (Bos taurus) (UniProt P00766). In words: (§2) Ratio of the kinetic constants (ki X 10e3) versus Ki was reported.
Assay [2] has the same target. The experiment in a line: (§3) Ratio of the kinetic constants kH versus ki was reported.
Assay [3] has the same target. In words: (§4) The ratio (ki + kH)/ki (turnover ratio) was determined using ultimate activity assay.
Assay [4] shares this target. The description is as §1.
Assay [5] concerns Subtilisin (Bacillus). The experiment in a line: Inhibitory activity against subtilisin.
For assay [6], the system named is Subtilisin (Bacillus). The experiment in a line: Ratio of the kinetic constants kH versus ki was reported.
The test system of assay [7] is Subtilisin (Bacillus). In words: Ratio of the kinetic constants (ki X 10e3) versus Ki was reported.
The test system of assay [8] is Subtilisin (Bacillus). The experiment in a line: The ratio (ki + kH)/ki (turnover ratio) was determined using ultimate activity assay.
Assay [9] in a line: (§5) Inhibitory activity against subtilisin.
Assay [10] in a line: as §5. The source holds these as a separate data set.
The nature of assay [11]: as §5. The source holds these as a separate data set.
Assay [12] is described as follows: as §2.
The nature of assay [13]: as §3.
The nature of assay [14]: as §4.

Structures are written as SMILES.

Compound `CCOC(=O)[C@H](Cc1ccc(OCCCC2CO2)cc1)NC(=O)c1ccccc1` (some centres not stated) registered a Ki on Chymotrypsinogen A of 35 µM. Further, the Ratio came to 2400 M⁻¹ min⁻¹ in assay [1], 109 in assay [2] and 26 in assay [3]. In addition, the k obs in assay [4] is 0.00017 s⁻¹. The compound also showed a kH in [4] of 0.15 s⁻¹.
The compound `CCOC(=O)[C@H](Cc1ccc(OCCC2CO2)cc1)NC(=O)c1ccccc1` (some centres not stated) gave a Ki at Chymotrypsinogen A of 57 µM. For the same compound, the values for the Ratio in assay [1], in [2] and in assay [3] were 14600 M⁻¹ min⁻¹, 28 and 13, respectively. In assay [4], the k obs is 0.00027 s⁻¹. This compound registered a kH in [4] of 0.38 s⁻¹.
`CCOC(=O)[C@H](Cc1ccc(OCC2CO2)cc1)NC(C)=O` (some centres not stated) had a k obs in the assay with Subtilisin (Bacillus) [5] of 0.0011 s⁻¹. Besides, the kH with Subtilisin (Bacillus) [5] was 13.8 s⁻¹. In addition, the Ratio in the assay on Subtilisin (Bacillus) [6] amounted to 3900; with Subtilisin (Bacillus) [7], 1000 M⁻¹ min⁻¹; in the assay on Subtilisin (Bacillus) [8], 2000.
On to `CCOC(=O)[C@H](Cc1ccc(OCC2CO2)cc1)NC(=O)c1ccccc1` (some centres not stated), for which the Ki on Chymotrypsinogen A was 380 µM. The Ratio in assay [1] was determined as 260 M⁻¹ min⁻¹; in [2], 300; in assay [3], 68. In addition, the k obs in assay [4] came out at 0.00055 s⁻¹. For the same compound, the kH in assay [4] was found to be 5.2 s⁻¹.
For `O=C(N[C@@H](Cc1ccc(OCC2CO2)cc1)C(=O)Nc1ccc([N+](=O)[O-])cc1)c1ccccc1` (some centres not stated), on Chymotrypsinogen A, the Ki was 66 µM. Further, the Ratio was found to be 3000 M⁻¹ min⁻¹ in assay [1], 184 in assay [2] and 80 in assay [3]. For the same compound, the k obs in assay [4] is 0.00037 s⁻¹. For the same compound, in assay [4], the kH came to 0.61 s⁻¹.
Turning to `CCOC(=O)[C@H](Cc1ccc(OCCC2CO2)cc1)NC(C)=O` (some centres not stated), the Ki in assay [9] came to 0.0092 s⁻¹; in assay [11] it was 140 µM. In assay [10], this compound had a k obs of 0.0014 s⁻¹. Also, the kH in assay [10] was determined as 11.8 s⁻¹. Moreover, the results for the Ratio in assay [12], in assay [13] and in assay [14] were 3900 M⁻¹ min⁻¹, 1300 and 500, respectively.
At Chymotrypsinogen A, `O=C(N[C@@H](Cc1ccc(OCCC2CO2)cc1)C(=O)Nc1ccc([N+](=O)[O-])cc1)c1ccccc1` (some centres not stated) came in with a Ki of 59 µM. Moreover, the results for the Ratio in assay [1], in assay [2] and in [3] were 14000 M⁻¹ min⁻¹, 60 and 20, respectively. This compound registered a k obs in assay [4] of 0.00056 s⁻¹. Further, the kH in assay [4] stood at 0.83 s⁻¹.
